Test results published in patent US20160151369A1, “SUBSTITUTED 3-PHENYLPROPYLAMINE DERIVATIVES FOR THE TREATMENT OF OPHTHALMIC DISEASES AND DISORDERS” (ACUCELA INC., priority 2013, published 2016).

System: isomerase (recovery of 11-cis-retinal after bleaching)
Assay: In vivo murine isomerase assay (Table 3)
Settings: Mus musculus, po, mice
Method: The capability of compounds described herein to inhibit isomerase was determined by an in vivo murine isomerase assay. […] The recovery of 11-cis-retinal after bleaching can be used to estimate the activity of isomerase in vivo. Delayed recovery, as represented by lower 11-cis-retinal oxime levels, indicates inhibition of isomerization reaction.
Mice were gavaged with the test compound. […] The mice were allowed to recover 2 hours in the dark. The animals were then sacrificed by carbon dioxide inhalation. Retinoids were extracted from the eye and the regeneration of 11-cis-retinal was assessed at various time intervals.
After the mice were sacrificed, the eyes were immediately removed and placed in liquid nitrogen for storage.
The eyes were placed in 500 μL of bis-tris propane buffer (10 mM, pH˜7.3) and 20 μL of 0.8M hydroxile amine (pH˜7.3). The eyes were cut up into small pieces with small iris scissors and then thoroughly homogenized at 30000 rpm with a mechanical homogenizer (Polytron PT 1300 D) in the tube until no visible tissue remained. 500 μL of methanol and 500 μL of heptane were added to each tube. The tubes were attached to a vortexer so that the contents were mixed thoroughly for 15 minutes in room temperature. The organic phase was separated from the aqueous phase by centrifugation for 10 min at 13K rpm, 4° C. 240 μL of the solution from the top layer (organic phase) was removed and transferred to clean 300 μl glass inserts in HPLC vials using glass pipette and the vials were crimped shut tightly.
The samples were analyzed on an Agilent 1100 HPLC system with normal phase column: SILICA (Beckman Coutlier, dp 5 μm, 4.6 mM×250 mM). […] Loading volume for each sample was 100 μl; detection wavelength was 360 nm. The area under the curve for 11-cis retinal oxime was calculated by Agilent Chemstation software and was recorded manually. Data processing was performed using Prizm software.
Positive control mice (no compound administered) were sacrificed fully dark-adapted and the eye retinoids analyzed. Light (bleached) control mice (no compound administered) were sacrificed and retinoids isolated and analyzed immediately after light treatment.
A time course study was performed to determine the isomerase inhibitory activity of the test compound. […] The animals were then “photo-bleached” (5000 Lux white light for 10 minutes) at 2, 4, 8, 16 and 24 hours after dosing, and returned to darkness to allow recovery of the 11-cis-retinal content of the eyes. Mice were sacrificed 2 hours after bleaching, eyes were enucleated, and retinoid content is analyzed by HPLC.
Recovery control mice (vehicle-only treated) were light-treated and left to recover for 2 hours in the dark before sacrifice and analysis. Light control mice (vehicle only treated) were sacrificed for analysis immediately after photo-bleaching.
An in vivo dose response isomerase inhibition study was performed with test compound. […] Recovery and retinoid analysis were performed as described above. Dark control mice were vehicle-only treated, sacrificed fully dark adapted without light treatment, and analyzed. Recovery control mice and light control mice were included in the study as per the initial phase.

Molecule `COC(=O)N1CCC(COc2cccc([C@H](O)CCN)c2)CC1` [Example 17, (R)-Methyl 4-((3-(3-amino-1-hydroxypropyl)phenoxy)methyl)piperidine-1-carboxylate] has an inhibition at 0.01 mg/kg (2 h, Dose 0.01 mg/kg) of 0%, an inhibition at 0.03 mg/kg (2 h, Dose 0.03 mg/kg) of -2% and an inhibition at 0.1 mg/kg (2 h, Dose 0.1 mg/kg) of 9%. It also gave an inhibition at 0.3 mg/kg (2 h, Dose 0.3 mg/kg) of 8%, an inhibition at 1 mg/kg (2 h) of 93% and an inhibition at 3 mg/kg (2 h, Dose 3 mg/kg) of 100%. The inhibition at 1 mg/kg (4 h) was 88%, the inhibition at 1 mg/kg (8 h) was 25% and the inhibition at 1 mg/kg (16 h) was -1%. For the same molecule, the inhibition at 1 mg/kg (24 h) was -8%.

Molecule `NCC[C@@H](O)c1cccc(NCC2CCOCC2)c1` [Example 23, (R)-3-Amino-1-(3-(((tetrahydro-2H-pyran-4-yl)methyl)amino)phenyl)propan-1-ol] has an inhibition at 1 mg/kg (2 h) of 4.4%, an inhibition at 1 mg/kg (4 h) of -1.4% and an inhibition at 1 mg/kg (8 h) of 1.5%.

`NCC[C@@H](O)c1cccc(OCC2CCCC(=O)N2)c1` (stereo partly drawn) [Example 27] showed an inhibition at 1 mg/kg (4 h) of 9%.

`NCC[C@@H](O)c1cccc(OCc2cccs2)c1` [Example 28, (R)-3-Amino-1-(3-(thiophen-2-ylmethoxy)phenyl)propan-1-ol] gave an inhibition at 1 mg/kg (4 h) of 50.6%.

`NCC[C@@H](O)c1cccc(OCc2ccsc2)c1` [Example 29, (R)-3-Amino-1-(3-(thiophen-3-ylmethoxy)phenyl)propan-1-ol] showed an inhibition at 1 mg/kg (4 h) of 27.4%.

In the case of `NC/C=C/c1cccc(OCC2CCOCC2)c1` [Example 31, (E)-3-(3-((Tetrahydro-2H-pyran-4-yl)methoxy)phenyl)prop-2-en-1-amine], the inhibition at 1 mg/kg (2 h) was 11.3%.

`NCCCc1cccc(OCC2CCOCC2)c1` [Example 32, 3-(3-((Tetrahydro-2H-pyran-4-yl)methoxy)phenyl)propan-1-amine] gave an inhibition at 1 mg/kg (2 h) of 14.2%.

For `CNCC[C@@H](O)c1cccc(OCC2CCOCC2)c1` [Example 33, (R)-3-(Methylamino)-1-(3-((tetrahydro-2H-pyran-4-yl)methoxy)phenyl)propan-1-ol], the inhibition at 1 mg/kg (2 h) was 65.2%, the inhibition at 1 mg/kg (4 h) was 54.5% and the inhibition at 1 mg/kg (8 h) was 10.9%. It also gave an inhibition at 1 mg/kg (16 h) of -0.8% and an inhibition at 1 mg/kg (24 h) of 1.8%.

`NCC[C@@H](O)c1cccc(NCC2CCCCC2)c1` [reference compound] gave an inhibition at 1 mg/kg (4 h) of 96%.
